Test results published in the NIST ThermoML archive (doi:10.1016/j.fluid.2005.12.016).
± gives the expanded uncertainty stated by the source.

Assay: osmotic coefficient (dimensionless); mn = molality of the nth substance listed, in mol/kg
Details: 298.15 K, 101 kPa, Liquid, isopiestic method

OCCC(O)CO (stereo not given) [1,2,4-butanetriol] + O
Details | osmotic coefficient
m1 = 0.7526 | 0.9857 ± 0.0011
m1 = 1.34 | 0.9912 ± 0.001
m1 = 1.929 | 0.9968 ± 0.001
m1 = 2.745 | 1.0059 ± 0.001
m1 = 2.8 | 1.0065 ± 0.001
m1 = 3.691 | 1.019 ± 0.0012
m1 = 5.916 | 1.062 ± 0.0024

CC(O)C(C)O (stereo not given) [2,3-butanediol] + O
Details | osmotic coefficient
m1 = 0.6071 | 0.9429 ± 0.0023
m1 = 0.8087 | 0.9359 ± 0.0025
m1 = 1.995 | 0.913 ± 0.0034
m1 = 2.96 | 0.9043 ± 0.0037

OCCCCO [1,4-butanediol] + O
Details | osmotic coefficient
m1 = 0.2252 | 0.977 ± 0.0013
m1 = 0.778 | 0.9474 ± 0.0021
m1 = 0.7931 | 0.9467 ± 0.0021
m1 = 1.054 | 0.9349 ± 0.0025
m1 = 2.148 | 0.892 ± 0.0042
m1 = 2.158 | 0.8916 ± 0.0042
m1 = 3.12 | 0.8619 ± 0.0053
m1 = 4.499 | 0.8341 ± 0.0064
m1 = 4.501 | 0.8341 ± 0.0064

CC(O)CCO (stereo not given) [1,3-butanediol] + O
Details | osmotic coefficient
m1 = 0.2289 | 0.9766 ± 0.0013
m1 = 0.7849 | 0.9509 ± 0.002
m1 = 1.051 | 0.9416 ± 0.0023
m1 = 2.968 | 0.9042 ± 0.0037
m1 = 2.969 | 0.9042 ± 0.0037
m1 = 4.186 | 0.8953 ± 0.0041
m1 = 4.197 | 0.8953 ± 0.0041

CCC(O)CO (stereo not given) [1,2-butanediol] + O
Details | osmotic coefficient
m1 = 0.2302 | 0.9585 ± 0.0018
m1 = 0.803 | 0.9286 ± 0.0028
m1 = 0.8128 | 0.9282 ± 0.0028
m1 = 1.046 | 0.9205 ± 0.0031
m1 = 1.056 | 0.9202 ± 0.0031
m1 = 2.093 | 0.8967 ± 0.004
m1 = 3.038 | 0.8831 ± 0.0045
m1 = 3.044 | 0.8831 ± 0.0045
m1 = 4.304 | 0.8709 ± 0.005

OC[C@@H](O)[C@@H](O)CO [meso-1,2,3,4-butanetetrol] + O
Details | osmotic coefficient
m1 = 0.2173 | 1.0019 ± 0.001
m1 = 0.2196 | 1.0019 ± 0.001
m1 = 0.5657 | 1.011 ± 0.0011
m1 = 0.5662 | 1.011 ± 0.0011
m1 = 0.7365 | 1.014 ± 0.0011
m1 = 0.74 | 1.014 ± 0.0011
m1 = 0.9458 | 1.017 ± 0.0012
m1 = 1.113 | 1.019 ± 0.0012
m1 = 1.114 | 1.019 ± 0.0012
